Calls of active or inactive are those of the source. The rule behind the calls is not given here.
Columns and labels:
[1] = Oral bioavailability in Sprague-Dawley rat at 50 mg/kg; assay type: ADME, organism-based; conditions: in vivo
[2] = Metabolic stability in human liver microsomes assessed as half life at 1 uM preincubated for 1 hr followed by NADPH addition and measured upto 60 mins by LC-MS/MS analysis; assay type: ADME, Microsome; conditions: time < 120 min
[3] = molecular target: T1, Platelet glycoprotein VI (Homo sapiens) (UniProt Q9HCN6); test: Antagonist activity at GPVI in human plasma assessed as inhibition of collagen-induced platelet aggregation at 20 nM to 1 uM preincubated for 5 mins followed by aggregation inducer addition and measured after 5 mins by light transmission aggregometry; assay type: cell-free; conditions: dose 20-1000 nM, time 10.0 min
T1 sequence (whole entry): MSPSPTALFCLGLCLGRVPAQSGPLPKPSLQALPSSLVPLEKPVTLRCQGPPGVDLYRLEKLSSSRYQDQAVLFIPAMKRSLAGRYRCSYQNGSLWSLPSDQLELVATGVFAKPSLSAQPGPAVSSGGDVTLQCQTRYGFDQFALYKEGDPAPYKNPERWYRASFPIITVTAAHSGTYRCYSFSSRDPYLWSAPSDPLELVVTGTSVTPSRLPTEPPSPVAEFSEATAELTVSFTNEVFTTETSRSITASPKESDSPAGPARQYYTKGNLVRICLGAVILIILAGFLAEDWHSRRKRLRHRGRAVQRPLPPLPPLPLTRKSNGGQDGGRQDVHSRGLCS

[4] = molecular target: T2, Proteinase-activated receptor 4 (Homo sapiens) (UniProt Q96RI0); test: (§1) Antagonist activity at PAR4 in human plasma assessed as inhibition of PAR4-activated peptide AYPGPK-NH2 induced platelet aggregation by measuring residual aggregation rate at 20 nM to 1 uM preincubated for 5 mins followed by aggregation inducer addition and measured after 5 mins by light transmission aggregometry relative to control; assay type: functional, cell-free; conditions: filed as antagonist, dose 20-1000 nM, time 10.0 min
T2 sequence (whole entry): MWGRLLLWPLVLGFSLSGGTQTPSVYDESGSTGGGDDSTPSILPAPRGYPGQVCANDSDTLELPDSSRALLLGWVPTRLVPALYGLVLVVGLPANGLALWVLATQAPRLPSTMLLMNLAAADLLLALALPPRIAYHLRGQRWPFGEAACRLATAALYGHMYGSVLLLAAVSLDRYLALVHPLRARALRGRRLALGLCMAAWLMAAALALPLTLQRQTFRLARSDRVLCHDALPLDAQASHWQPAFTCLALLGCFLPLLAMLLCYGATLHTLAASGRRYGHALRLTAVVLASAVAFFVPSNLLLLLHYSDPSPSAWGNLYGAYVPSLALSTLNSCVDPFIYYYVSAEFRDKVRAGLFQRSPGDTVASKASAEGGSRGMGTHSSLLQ

[5] = molecular target: T2, Proteinase-activated receptor 4 (Homo sapiens); test: Antagonist activity at PAR4 in human filtered plasma assessed as inhibition of PAR4-activated peptide AYPGPK-NH2 induced platelet aggregation at 3 nM preincubated for 5 mins followed by aggregation inducer addition and measured after 5 mins by light transmission aggregometry; assay type: functional, cell-free; conditions: filed as antagonist, time 10.0 min
Platelet [6] = test: Inhibition of platelet aggregation in human platelet rich plasma at 20 uM preincubated for 5 mins followed by aggregation inducer addition and measured after 5 mins by light transmission aggregometry relative to control; assay type: functional; conditions: 10 min
[7] = molecular target: T3, Proteinase-activated receptor 1 (Homo sapiens) (UniProt P25116); test: Antagonist activity at PAR1 in human plasma assessed as inhibition of PAR1-activated peptide SFLLRNPNDKY induced platelet aggregation upto 9 uM preincubated for 5 mins followed by aggregation inducer addition and measured after 5 mins by light transmission aggregometry; assay type: functional, cell-free; conditions: time 10.0 min
T3 sequence (whole entry): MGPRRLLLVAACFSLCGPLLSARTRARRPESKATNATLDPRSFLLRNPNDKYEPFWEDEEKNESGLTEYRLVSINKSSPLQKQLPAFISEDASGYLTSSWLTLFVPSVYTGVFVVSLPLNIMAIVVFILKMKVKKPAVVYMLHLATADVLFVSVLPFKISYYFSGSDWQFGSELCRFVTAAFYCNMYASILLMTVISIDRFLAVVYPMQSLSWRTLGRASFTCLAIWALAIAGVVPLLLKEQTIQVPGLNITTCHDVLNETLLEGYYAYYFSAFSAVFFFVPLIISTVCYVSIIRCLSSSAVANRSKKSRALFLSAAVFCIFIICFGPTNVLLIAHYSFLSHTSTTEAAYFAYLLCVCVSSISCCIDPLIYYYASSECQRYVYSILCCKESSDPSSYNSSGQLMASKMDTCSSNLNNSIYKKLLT

Platelet [8] = test: as §1, with “Antiplatelet aggregation” for “Antagonist”, “activity” for “activity at PAR4”, “thrombin” for “PAR4-activated peptide AYPGPK-NH2”; assay type: functional; conditions: dose 20-1000 nM, time 10 min, at 20 to 1000 nM
[9] = molecular target: T2, Proteinase-activated receptor 4 (Homo sapiens); test: Antagonist activity at PAR4 in human filtered plasma assessed as inhibition of PAR4-activated peptide AYPGPK-NH2 induced platelet aggregation at 10 nM preincubated for 5 mins followed by aggregation inducer addition and measured after 5 mins by light transmission aggregometry relative to control; assay type: functional, cell-free; conditions: filed as antagonist, time 10.0 min
[10] = molecular target: T4, Thromboxane A2 receptor (Homo sapiens) (UniProt P21731); test: Antagonist activity at thromboxane A2 receptor in human plasma assessed as inhibition of U46619-induced platelet aggregation at 20 nM to 1 uM preincubated for 5 mins followed by aggregation inducer addition and measured after 5 mins by light transmission aggregometry; assay type: functional, cell-free; conditions: dose 20-1000 nM, time 10.0 min
T4 sequence (whole entry): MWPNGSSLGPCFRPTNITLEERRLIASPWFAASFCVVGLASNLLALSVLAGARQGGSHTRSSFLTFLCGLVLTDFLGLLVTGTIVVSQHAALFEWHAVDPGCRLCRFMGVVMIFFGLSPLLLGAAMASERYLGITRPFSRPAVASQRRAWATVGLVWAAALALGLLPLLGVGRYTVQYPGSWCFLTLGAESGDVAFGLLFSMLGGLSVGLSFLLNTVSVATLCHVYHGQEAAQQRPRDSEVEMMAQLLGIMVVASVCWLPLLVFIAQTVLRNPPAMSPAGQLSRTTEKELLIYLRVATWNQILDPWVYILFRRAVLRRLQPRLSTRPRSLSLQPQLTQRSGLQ

Platelet [11] = test: Antagonist activity at GPIB/vWF in human plasma assessed as inhibition of ristocetin-induced platelet aggregation at 20 nM to 1 uM preincubated for 5 mins followed by aggregation inducer addition and measured after 5 mins by light transmission aggregometry; assay type: cell-free; conditions: dose 20-1000 nM, time 10.0 min
[12] = molecular target: T3, Proteinase-activated receptor 1 (Homo sapiens); test: Antagonist activity at PAR1 in human plasma assessed as inhibition of PAR1-activated peptide SFLLRNPNDKY induced platelet aggregation at 20 nM to 1 uM preincubated for 5 mins followed by aggregation inducer addition and measured after 5 mins by light transmission aggregometry; assay type: functional, cell-free; conditions: dose 20-1000 nM, time 10.0 min
Platelet [13] = test: Inhibition of platelet aggregation in human platelet rich plasma preincubated for 5 mins followed by aggregation inducer addition and measured after 5 mins by light transmission aggregometry; assay type: functional, cell-based
Platelet [14] = test: Antagonist activity at P2Y1/P2Y12 in human plasma assessed as inhibition of ADP-induced platelet aggregation at 20 nM to 1 uM preincubated for 5 mins followed by aggregation inducer addition and measured after 5 mins by light transmission aggregometry; assay type: cell-free; conditions: dose 20-1000 nM, time 10.0 min

**Q.** For `COc1nn2cc(-c3cc4ccc5c(c4o3)OCCO5)nc2s1`, which bioavailability [1] is on record?
**A.** 0.94%

**Q.** What about the half-life at 1 µM [2] of the same compound?
**A.** 12.2 min

**Q.** And the Activity [3]?
**A.** inactive

**Q.** And the Activity [4]?
**A.** < 30%

**Q.** What about the Activity [5] of the same compound?
**A.** Active

**Q.** What about the inhibition at 20 µM (Platelet [6]) of the same compound?
**A.** 90.5%

**Q.** What about the Activity [7] of the same compound?
**A.** inactive

**Q.** What about the Activity (Platelet [8]) of the same compound?
**A.** <30%

**Q.** And the inhibition [9]?
**A.** 100%

**Q.** And the Activity [10]?
**A.** inactive

**Q.** And the Activity (Platelet [11])?
**A.** inactive

**Q.** What about the Activity [12] of the same compound?
**A.** inactive

**Q.** And the IC50 (Platelet [13])?
**A.** 3.2 nM

**Q.** And the Activity (Platelet [14])?
**A.** inactive

Source: ChEMBL document CHEMBL5543125, “Discovery of 2,3-Dihydro[1,4]dioxino[2,3-g]benzofuran Derivatives as Protease Activated Receptor 4 (PAR4) Antagonists with Potent Antiplatelet Aggregation Activity and Low Bleeding Tendency” (J Med Chem, 2024)
